Publication PMC11642940, “A New Demand for Improved Selectivity and Potency of Cyanine Dyes as Antiproliferative Agents Against Colorectal Cancer Cells” (Molecules, 2024)
Read-outs that look alike come from different tables or passages of the source.

Assays:
[1] = test system: PC-3 prostate adenocarcinoma cells; test: MTT cell viability assay, PC-3; conditions: for viability at 10 µM: read-out: cell viability percentage in relation to control, PC-3; for SI PC-3 (selectivity index versus NHDF): PC-3 versus NHDF
Protocol: (§1) To evaluate the anticancer potential of monomethine cyanine dyes 1–12, a cell proliferation study was conducted using the 3-(4,5-dimethylthiazol-2-yl)-2,5-diphenyltetrazolium bromide (MTT) assay. For this preliminary evaluation, a concentration of 10 µM for each dye was tested, with the well-established chemotherapy agent 5-fluorouracil (5-FU) serving as a positive control. The assay included normal human dermal fibroblasts (NHDF) as non-tumor cells, alongside tumor cell lines from colorectal (Caco-2), prostate (PC-3), and breast (MCF-7) adenocarcinomas.
(§2) The cell lines used in this study (Caco-2, MCF-7, PC-3, and NHDF) were obtained from the American Type Culture Collection (ATCC, Manassas, VA, USA) and cultured in 75 cm^2 culture flasks at 37 °C in a humidified atmosphere with 5% CO2 in a LEEC Culture Safe Precision CO2 Incubator. PC-3 cells were grown in Roswell Park Memorial Institute (RPMI) medium supplemented with 10% of inactivated Fetal Bovine Serum (FBS) and 1% of an antibiotic mixture (Sp; 10,000 U/mL of penicillin G and […] of streptomycin). MCF-7 and Caco-2 cell lines were both cultured using Dulbecco’s Modified Eagle Medium (DMEM). However, the medium for MCF-7 cells was complemented with 10% of inactivated FBS and 1% of antibiotic/antimycotic mixture (Ab; 10,000 U/mL of penicillin G, […] of streptomycin and 25 µg/mL of amphotericin B), and the medium for Caco-2 cells was supplemented with 20% of inactivated FBS and 1% of Sp. Finally, RPMI medium supplemented with 10% FBS, 2 mM of L-glutamine, 10 mM of 4-(2-hydroxyethyl)-1-piperazineethanesulfonic acid (HEPES), 1 mM of sodium pyruvate, and 1% of Ab was used to culture NHDF cells. The culture media were renewed every two to three days until near confluence was achieved. Then, cells were detached using a solution of 0.125 g/L of trypsin and 0.02 g/L of ethylenediaminetetracetic acid (EDTA), counted by the trypan blue method, resuspended, and adequately seeded to continue the culture in 75 cm^2 flasks or for the experiments described below. All manipulations were performed in a Labculture Class II A2 Biological Safety Cabinet.
(§3) After trypsinization, cells were seeded in 96-well culture plates (100 µL; 2 × 10^4 cells/mL), and after 48 h (for adherence), they were incubated with the compounds under study in the absence of light for a duration of 72 h. Then, the medium was removed, and fresh incomplete culture medium (without FBS and Ab or Sp) and MTT solution [5 mg/mL in phosphate buffer saline (PBS)] were added to each well, followed by 4 h of incubation. After this, the medium containing MTT was removed and DMSO was added to dissolve formazan crystals. The absorbance of each well at 570 nm was determined using a microplate spectrophotometer Bio-Rad (Hercules, CA, USA) xMark. Untreated cells were considered the negative control, and 5-FU, a clinically used drug, was considered the positive control. For data analysis, the relative cell proliferation relative to the negative control cells was calculated. For each cell viability study, at least two independent assays in quadruplicate were performed. Increasing concentrations of the compounds between 0.001 and 100 μM were used to determine the IC50 values.

[2] = test system: Caco-2 colorectal adenocarcinoma cells; test: MTT cell viability assay, Caco-2; conditions: Homo sapiens, Caco-2, 72 h; for IC50: read-out: IC50 Caco-2; for viability at 10 µM: read-out: cell viability percentage in relation to control, Caco-2
Protocol: as §1, §2, §3

[3] = MTT cell viability assay, Caco-2; conditions: human
Protocol: as §1, §2, §3

[4] = test system: MCF-7 breast adenocarcinoma cells; test: MTT cell viability assay, MCF-7; conditions: for viability at 10 µM / IC50: Homo sapiens, MCF7, 72 h; for viability at 10 µM: read-out: cell viability percentage in relation to control, MCF-7; for IC50: read-out: IC50 MCF-7, MCF-7, 72 h incubation, MTT; for SI MCF-7 (selectivity index versus NHDF): MCF-7 versus NHDF, 72 h
Protocol: as §1, §2, §3

[5] = test system: normal human dermal fibroblasts (NHDF); test: MTT cell viability assay, NHDF; format: cell-based; conditions: Homo sapiens, NHDF, read-out: IC50 NHDF
Protocol: (§4) The cell lines used in this study (Caco-2, MCF-7, PC-3, and NHDF) were obtained from the American Type Culture Collection (ATCC, Manassas, VA, USA) and cultured in 75 cm^2 culture flasks at 37 °C in a humidified atmosphere with 5% CO2 in a LEEC Culture Safe Precision CO2 Incubator. PC-3 cells were grown in Roswell Park Memorial Institute (RPMI) medium supplemented with 10% of inactivated Fetal Bovine Serum (FBS) and 1% of an antibiotic mixture (Sp; 10,000 U/mL of penicillin G and 100 mg/mL of streptomycin). MCF-7 and Caco-2 cell lines were both cultured using Dulbecco’s Modified Eagle Medium (DMEM). However, the medium for MCF-7 cells was complemented with 10% of inactivated FBS and 1% of antibiotic/antimycotic mixture (Ab; 10,000 U/mL of penicillin G, 100 mg/mL of streptomycin and 25 µg/mL of amphotericin B), and the medium for Caco-2 cells was supplemented with 20% of inactivated FBS and 1% of Sp. Finally, RPMI medium supplemented with 10% FBS, 2 mM of L-glutamine, 10 mM of 4-(2-hydroxyethyl)-1-piperazineethanesulfonic acid (HEPES), 1 mM of sodium pyruvate, and 1% of Ab was used to culture NHDF cells. The culture media were renewed every two to three days until near confluence was achieved. Then, cells were detached using a solution of 0.125 g/L of trypsin and 0.02 g/L of ethylenediaminetetracetic acid (EDTA), counted by the trypan blue method, resuspended, and adequately seeded to continue the culture in 75 cm^2 flasks or for the experiments described below. All manipulations were performed in a Labculture Class II A2 Biological Safety Cabinet.

[6] = MTT cell viability assay, NHDF; format: cell-based, human; conditions: human, 10 µM, 72 h, mean ± SD, read-out: cell viability percentage in relation to control, NHDF
Protocol: as §4

Caco-2 cells [7] = test: Caco-2 morphological analysis (optical microscopy); conditions: 24 h
Protocol: Sorbitol and 5-FU were used as positive controls, while untreated cells served as the negative control.
Caco-2 cells near confluency were trypsinized, counted, and then seeded at 3 × 10^4 cells/mL (3 mL) in 35 mm cell culture dishes previously treated for tissue culture. After cell adherence (48 h), they were incubated with solutions under study for 72 h in the absence of light. The cellular morphology was verified every 24 h using a CKX41 SF inverted microscope (Olympus, Tokyo, Japan) with 10, 20, or 40× objectives. A DC6 V digital camera (Olympus, Tokyo, Japan) coupled to the microscope was used to capture cell imaging. The morphology of cells in the presence or absence of treatments was compared.

Caco-2 cells [8] = test: Apoptosis (sub-G1 events) by PI staining and flow cytometry; format: cell-based, human; conditions: Caco-2, 600 mM, incubated for 24 h
Protocol: Given that apoptosis is a common programmed mechanism regulating cell death, characterized by DNA fragmentation and an increase in sub-G1 events, we employed the method described by Riccardi and Nicolleti to assess potential apoptosis induction using flow cytometry. Cyanine dyes 5 and 10 were tested at concentrations of 1 µM and 10 µM, respectively. As positive controls for apoptosis, 600 mM sorbitol and 10 µM 5-FU were used, with untreated cells serving as the negative control. […] In contrast, dye 10 induced a slight increase in apoptosis, reaching 1.7%. […] Apoptotic bodies were more evident in cells treated with dye 5 compared to dye 10, which is further supported by the slightly higher apoptosis induction in this assay.
Apoptosis (sub-G1 events) and cell cycle distribution were evaluated by propidium iodide (PI) staining and flow cytometry, as described by Riccardi and Nicolleti. […] Untreated cells were used as the negative control, and sorbitol and 5-FU were used as positive controls. After incubation, the supernatant was collected in a centrifuge tube, cells were washed with PBS, trypsinized and wells were once again washed with PBS. This cell suspension was maintained on ice, centrifugated at 300 g for 5 min, and then the pellet was resuspended in 0.5 mL of PBS. Cells were fixed by adding 4.5 mL of 70% ethanol cooled at −20 °C on ice and were stored at −20 °C for a period ranging from one to a few days. On the day of flow cytometry analysis, PBS was added to the fixed cell tubes, followed by centrifugation and removal of the supernatant. The pellet was resuspended in 0.5 mL of PBS and 0.5 mL of DNA extraction solution (192 mL of 0.2 M sodium phosphate and 8 mL of […], pH 7.8). After incubation for 5 min, the cells were once again centrifuged, the supernatant was removed, and the pellet was resuspended in 0.3 mL of staining solution (20 µg/mL of PI and 0.2 mg/mL of DNase-free RNase in PBS). Using a FACSCalibur flow cytometer (Becton Dickinson, Franklin Lakes, NJ, USA) with a 488 nm laser line, a minimum of 20,000 events were acquired and recorded using the BD CellQuestTM Pro 4.0.2 software, and analyzed with FlowJo 10.5.3 software. To exclude debris and necrotic cells, events with a lower diameter (forward scatter; FCS) and PI fluorescence (FL3) than the hypodiploid apoptotic cells were eliminated (Figures S1 and S2). Two independent experiments were performed. A Student’s t-test was performed to evaluate the statistical significance of the results.

[9] = Caco-2, SI Caco-2 (selectivity index, cancer versus non-cancer cell line NHDF), Caco-2 versus NHDF, 72 h
[10] = 72 h incubation, MTT, absence of light
[11] = normal human dermal fibroblasts (NHDF)
[12] = Homo sapiens, 72 h, read-out: IC50 PC-3, PC-3, 72 h incubation, MTT

Structure (SMILES)	viability at 10 µM ([1]; Homo sapiens, 72 h)	IC50 [2]	viability at 10 µM [2]	selectivity ratio at 72 h [3, 9]	viability at 10 µM [4]	IC50 [5, 10]	viability at 72 h, 10 µM [6, 11]	melting point	morphological changes of Caco-2 cells (Caco-2 cells [7])	apoptosis (sub-G1 events), % of cells (Caco-2 cells [8])	IC50 [1, 12]	SI PC-3 (selectivity index versus NHDF) ([1]; 72 h)	IC50 ([1]; read-out: IC50 PC-3, PC-3, 72 h incubation, MTT)	IC50 [4]	SI MCF-7 (selectivity index versus NHDF) [4]	selectivity ratio at 72 h ([3]; Caco-2)	IC50 ([5]; 72 h)	viability at 72 h, 10 µM [6]
CCCCCCCCCCN1C(=Cc2sc3ccccc3[n+]2C)Sc2ccccc21.[I-] [Dye 2, 3-Methyl-2-((3-decylbenzo[d]thiazol-2(3H)-ylidene)methyl)benzo[d]thiazol-3-ium iodide]	0.62 ± 0.1%	240 nM	1.09 ± 0.47%	1.1	0.62 ± 0.79%	270 nM	0.13 ± 0.43%	217 to 218 °C										
OC[C@@H](O)[C@@H](O)[C@H](O)[C@@H](O)CO [sorbitol, reference compound]									marked increase in apoptotic bodies	37.9%								
CCCCCN1C(=Cc2sc3ccccc3[n+]2C)Sc2ccccc21.[I-] [Dye 1, 3-Methyl-2-((3-pentylbenzo[d]thiazol-2(3H)-ylidene)methyl)benzo[d]thiazol-3-ium iodide]	0.56 ± 0.12%	360 nM	1.37 ± 0.08%	1.5	0.87 ± 1.05%	550 nM	0.84 ± 0.26%	254 to 258 °C										
CN1C(=Cc2sc3ccccc3[n+]2C)Oc2ccccc21.Cc1ccc(S(=O)(=O)[O-])cc1 [Dye 3, 3-Methyl-2-((3-methylbenzo[d]oxazol-2(3H)-ylidene)methyl)benzo[d]thiazol-3-ium 4-methylbenzenesulfonate]	1.81 ± 0.31%	90 nM	5.81 ± 0.8%	81.2	3.04 ± 1.08%	7530 nM	23.9 ± 3.05%				480 nM	17.2	430 nM					
CCN1C(=Cc2n(CC)c3ccc([N+](=O)[O-])cc3[n+]2CC)Sc2ccccc21.[I-] [Dye 9, 1,3-Diethyl-2-((3-ethylbenzo[d]thiazol-2(3H)-ylidene)methyl)-5-nitro-1H-benzo[d]imidazol-3-ium iodide]	39.5 ± 7.97%	1400 nM	16.4 ± 0.81%	17.5	52.9 ± 8.99%	24500 nM	38.2 ± 4.27%	219 to 220 °C										
CCN1C(=Cc2sc3ccc(NC(C)=O)cc3[n+]2CC)Sc2ccccc21.Cc1ccc(S(=O)(=O)[O-])cc1 [Dye 7, 5-Acetamido-3-ethyl-2-((3-ethylbenzo[d]thiazol-2(3H)-ylidene)methyl)benzo[d]thiazol-3-ium 4-methylbenzenesulfonate]	7.97 ± 4%	140 nM	9.89 ± 1.38%	80.5	11.8 ± 4.3%	11600 nM	29 ± 4.76%				3560 nM	3.3		380 nM	30.2			
CCN1C(=Cc2sc3ccc(N)cc3[n+]2CC)Sc2ccccc21 [Dye 8, 5-Amino-3-ethyl-2-((3-ethylbenzo[d]thiazol-2(3H)-ylidene)methyl)benzo[d]thiazol-3-ium iodide]	4.12 ± 1.71%	740 nM	5.21 ± 0.89%	1.3	6.18 ± 1.48%	950 nM	5.52 ± 0.69%											
CCN1C(=Cc2sc3cc(N)ccc3[n+]2CC)Sc2ccccc21.[I-] [Dye 11, 6-Amino-3-ethyl-2-((3-ethylbenzo[d]thiazol-2(3H)-ylidene)methyl)benzo[d]thiazol-3-ium iodide]	10.5 ± 4.24%	170 nM	9.6 ± 1.47%	17.1	7.65 ± 2.8%	3000 nM	16.1 ± 2.46%				2100 nM	1.4		330 nM	9.0			
CN1C(=Cc2n(C)c3ccccc3[n+]2C)Sc2ccccc21.[I-] [Dye 4, 1,3-Dimethyl-2-((3-methylbenzo[d]thiazol-2(3H)-ylidene)methyl)-1H-benzo[d]imidazol-3-ium iodide]	4.09 ± 0.61%	230 nM	7.15 ± 1.08%	33.6	21.6 ± 1.33%	7930 nM	23.1 ± 1.91%	270 to 272 °C			2850 nM	2.8						
CN1C=C/C(=C/c2ccc3ccccc3[n+]2C)c2ccccc21 [Dye 12, 1-Methyl-4-((1-methylquinolin-2(1H)-ylidene)methyl)quinolin-1-ium 4-methylbenzenesulfonate]	9.02 ± 3.29%	730 nM	10.7 ± 0.43%		4.81 ± 1.56%											0.9	630 nM	5.72 ± 1.91%
CN1C(=Cc2sc3ccccc3[n+]2C)C=Cc2ccccc21 [Dye 6, 3-Methyl-2-((1-methylquinolin-2(1H)-ylidene)methyl)benzo[d]thiazol-3-ium 4-methylbenzenesulfonate]	4.98 ± 1.62%	270 nM	1.93 ± 0.78%	2.9	2.49 ± 0.32%	790 nM	4.28 ± 1.24%											
